Assay results published in paper PMC8043168, “Tribolium castaneum defensin 1 kills Moraxella catarrhalisin an in vitro infection model but does not harm commensal bacteria” (Virulence, 2021).
Bridge positions count the residues as written; N and C are the ends.

Assays:
[1] = tested on: M. catarrhalis in human blood-derived macrophages (BDMs); assay: Colony forming unit assay in blood-derived macrophages infected with M. catarrhalis; format: cell-based, Moraxella catarrhalis; settings: MOI 0.5 or 1; defensin 1 12.5 µM or sarcotoxin 1 C 0.39 µM added 1 or 5 h post-infection; further 16 h; lysis with 1% saponin, plating; vs assays without peptide
Protocol: The absolute number of bacterial cells after treatment with defensin 1 or sarcotoxin 1 C was determined by counting the colony forming units (CFUs). M. catarrhalis overnight cultures prepared as described above were grown to the mid-exponential phase (~5 x 10^8 cells/ml) in BHI medium before dilution to 2 × 10^7 cells/ml in PBS containing 0.15% gelatin, and blood-derived macrophages (BDMs) were infected with a multiplicity of infection (MOI) of 0.5 or 1. […] Cells were then incubated for an additional 16 h at 37°C and 5% CO2 and then lysed with 1% saponin. Lysates were plated on sheep blood agar and cultivated for a further 15 h at 37°C and 5% CO2 before manual counting of the colonies on each plate.
All donors gave informed written consent (Ethics approval number: 161/17). Human BDMs were cultured as previously described. Briefly, primary human monocytes were isolated from donor buffy coats by selection for CD14^+ cells using CD14 Microbeads (Miltenyi Biotec, Bergisch Gladbach, Germany). Monocytes were grown in RPMI1640 medium with 1% human AB serum at 37°C and 5% CO2 on ultra-low attachment plates (Sigma-Aldrich, Munich, Germany). After 6 days, differentiated macrophages were detached, seeded at the desired density and incubated for 24 h before further analysis.

[2] = tested on: commensal species (E. faecalis and E. coli); settings: previous study; cited from earlier work
Excerpt: We furthermore tested the effect of defensin 1 and sarcotoxin 1 C on the commensals E. faecalis and E. coli. Selectivity of AMPs may provide an important therapeutic advantage over broad-spectrum antibiotics because AMPs targeting pathogens but not commensals would avoid the common side effects of antibiotic therapy. […] Sarcotoxin 1 C was previously shown to inhibit 90% of clinical multidrug-resistant isolates of Ent ...

[3] = tested on: BDMs infected with M. catarrhalis; assay: qRT-PCR of cytokine mRNA in infected BDMs; format: cell-based, human; settings: defensin 1 12.5 µM given 1 or 5 h after infection, MOI 0.5 or 1; collected 16 h post-infection
Protocol: BDMs were infected with M. catarrhalis as described above and the cells and supernatant were collected 16 h post-infection. Total RNA was isolated by phenol-chloroform extraction followed by reverse transcription using the High-Capacity RNA-to-cDNA kit (Thermo Fisher Scientific, Waltham, MA, USA). Quantitative real-time PCR (qRT-PCR) was performed with the following specific primer pairs to measure the expression of IL-1β (forward primer 5′-AGCTCGCCAGTGAAATGATGG-3′ and reverse primer 5′-CAGGTCCTGGAAGGAGCACTTC-3′), IL-8 (forward primer 5′-ACTGAGAGTGATTGAGAGTGGAC-3′ and reverse primer 5′-AACCCTCTGCACCCAGTTTTC-3′), and RPS18 (forward primer 5′-GCGGCGGAAAATAGCCTTTG-3′ and reverse primer 5′-GATCACACGTCCACCTCATC-3′).

E. faecalis = assay: Growth kinetics of commensal E. faecalis; format: cell-based, Enterococcus faecalis; settings: liquid BHI medium, 37°C, OD600 every 30 min; defensin 1 12.5 µM, sarcotoxin 1 C 0.39 µM
Protocol: For the analysis of commensal bacteria, E. faecalis was grown on Columbia agar plates or in liquid BHI medium, and E. coli was grown on McConkey agar or in liquid LB medium. After overnight culture on agar plates at 37°C and 5% CO2, both species were transferred to liquid medium at an initial OD600 of 0.005. The cultures were maintained in a shaking incubator at 37°C, and the OD600 was measured automatically at 30-min intervals as above.

Which results are given for “H-VTCDLLSAEAKGVKVNHAACAAHCLLKRKRGGYCNKRRICVCRN-OH (disulfide 3-34, 20-40, 24-42 (inferred)) [Defensin 1]”?
M. catarrhalis CFU count (bacterial burden) in infection assay of primary BDMs [1]: reduced the bacterial burden; effect against commensal species (E. faecalis, E. coli) [2]: no effect; IL-1β expression (mRNA, qRT-PCR) [3]: limited the expression; IL-8 expression (mRNA, qRT-PCR) [3]: limited the expression; effect on growth of E. faecalis (E. faecalis): minor growth delay
